Source: PubChem BioAssay (NCI)
“And” between values parts separate entries of the source, which are not always exact repeats. Identical values can stand only once.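 Following 48 hours of exposure in 96-well plates, responses at five concentrations were used to interpolate endpoints linearly. GI50 = concentration required for 50% inhibition of growth. TGI marks complete inhibition of growth.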

Key:
Assay in all cases: NCI anticancer screen, dose series, 48 h
K-562 leukemia = test system: K-562 leukemia
HOP-92 NSCLC = test system: HOP-92 NSCLC
M14 melanoma = test system: M14 melanoma
SK-MEL-2 melanoma = test system: SK-MEL-2 melanoma
SR leukemia = test system: SR leukemia
A549 NSCLC = test system: A549 NSCLC
RXF 393 renal = test system: RXF 393 renal
CCRF-CEM leukemia = test system: CCRF-CEM leukemia
SNB-19 CNS = test system: SNB-19 CNS
HS 578T breast = test system: HS 578T breast

SMILES	TGI (K-562 leukemia)	TGI (HOP-92 NSCLC)	TGI (M14 melanoma)	TGI (SK-MEL-2 melanoma)	TGI (SR leukemia)	TGI (A549 NSCLC)	TGI (RXF 393 renal)	TGI (CCRF-CEM leukemia)	TGI (SNB-19 CNS)	GI50 (HS 578T breast)	TGI (HS 578T breast)	GI50 (RXF 393 renal)	GI50 (K-562 leukemia)	GI50 (HOP-92 NSCLC)	GI50 (M14 melanoma)	GI50 (SK-MEL-2 melanoma)	GI50 (A549 NSCLC)	GI50 (CCRF-CEM leukemia)	GI50 (SNB-19 CNS)	GI50 (SR leukemia)
CS(=O)(=O)c1ccc(COP(N)(=O)N(CCCl)CCCl)cc1 (configuration not stated)	> 100 µM	> 100 µM	> 100 µM	> 100 µM	> 100 µM	> 100 µM	> 100 µM	> 100 µM	> 100 µM											
CC1=C(CO)C(=O)O[C@@H]([C@@H](C)[C@H]2CC[C@H]3[C@@H]4C[C@H]5O[C@]56[C@@H](O)C=CC(=O)[C@]6(C)[C@H]4CC[C@]23C)C1	2.5 µM	1.46 µM	1.06 µM	1.93 µM		3.96 µM	1.66 µM		6.07 µM	0.402 µM	> 100 µM	0.44 µM								
Cc1ccc(SSCC(O)C(O)CSSc2ccc(C)cc2)cc1 (configuration not stated)	28.3 µM and 46.8 µM	26 µM and 31.4 µM	18.9 µM and 21.6 µM	20.5 µM	15.7 µM and 23.7 µM	35.9 µM and 26.4 µM	16.9 µM and 16.1 µM	4.08 µM	31.5 µM and 31.7 µM				4.84 µM and 15.3 µM							
CN1CCN=C1c1nnn(-c2ccc([N+](=O)[O-])cc2)c1-c1ccccc1	> 100 µM	94.5 µM	> 100 µM	> 100 µM	> 100 µM	> 100 µM	> 100 µM	59 µM	> 100 µM											
COc1ccc(-c2cc3ccccc3[nH]c2=O)cc1OC	> 100 µM		> 100 µM	> 100 µM	> 100 µM	> 100 µM	> 100 µM	> 100 µM	> 100 µM											
O=C1CC(C2(O)C(=O)Nc3ccc([N+](=O)[O-])cc32)c2ccccc21 (configuration not stated)	60.6 µM	85.4 µM	52.2 µM	36.5 µM	46.6 µM	> 100 µM	45.5 µM	61.1 µM	> 100 µM											
O=C1C(Cl)=C(Cl)C(=O)N1c1ccc(Cl)c(Cl)c1Cl	91.8 µM	88.5 µM	> 100 µM	> 100 µM	68 µM	> 100 µM		45.6 µM	> 100 µM											
COc1cc(C2c3cc4c(cc3OC(O)C2C)OCO4)cc(OC)c1OC (configuration not stated)	41.1 µM	7.53 µM	30.2 µM	13.3 µM			> 100 µM		> 100 µM		> 100 µM									
COc1cc2c(cc1OC)C(C(CBr)CBr)N(C1CCCC1)CC2 (configuration not stated)	> 100 µM	> 100 µM	> 100 µM	> 100 µM	> 100 µM	> 100 µM	> 100 µM	> 100 µM	> 100 µM											
COc1ccc(N2C(=O)[C@@H](N=[N+]=[N-])[C@@H]2[C@H]2COC(C)(C)O2)cc1	> 100 µM	> 100 µM	> 100 µM	> 100 µM	> 100 µM	> 100 µM	> 100 µM	> 100 µM	> 100 µM											
Cc1cc(=O)[nH]c(NNC(C#N)c2ccccc2O)n1 (configuration not stated)	> 100 µM	> 100 µM		> 100 µM	> 100 µM	> 100 µM	> 100 µM	> 100 µM												
OCCCCC#Cc1ccccc1C#Cc1cccnc1	71.1 µM	> 100 µM	75.4 µM	> 100 µM		80.2 µM	28.6 µM	> 100 µM	> 100 µM	44.9 µM	> 100 µM	5.95 µM	23.9 µM	38.2 µM	23.4 µM	87.9 µM	25.5 µM	33.9 µM	49.3 µM	
CC12CCC(=O)C(O1)C1C(=O)c3ccc4c(ccc5ccccc54)c3C(=O)C12 (configuration not stated)	7.3 µM	32.3 µM	30.6 µM	> 28.6 µM		33.2 µM	2.03 µM	> 100 µM	52 µM	9.77 µM	> 26.1 µM		1.72 µM	7.1 µM	12.2 µM	10 µM	9.34 µM	3.77 µM	20.9 µM	
Cc1ccccc1-n1c(=S)[nH]c2c(sc(=O)n2-c2ccccc2C)c1=O	> 100 µM	> 100 µM	> 100 µM	> 100 µM	> 100 µM	> 100 µM	> 100 µM	> 100 µM	> 100 µM											
CCCCCCCC(=O)[O-].CCCCCCCC(=O)[O-].N.N.N.N.[Co+3].[O-][Cl+3]([O-])([O-])[O-]	> 100 µM	> 100 µM	> 100 µM	> 100 µM	> 100 µM	> 100 µM	> 100 µM	> 100 µM	> 100 µM			74.6 µM	> 100 µM	> 100 µM	> 100 µM	> 100 µM	> 100 µM	> 100 µM	> 100 µM	69.9 µM
COc1ccc(NC(=O)CC(=O)N/N=C(\C)c2cc3ccccc3oc2=O)cc1	> 100 µM		> 100 µM			> 100 µM	> 100 µM	> 100 µM	> 100 µM											
CCCCCCCCCCCNC=O	86.1 µM	> 100 µM	> 100 µM	66.1 µM		> 100 µM	> 100 µM	> 100 µM	> 100 µM		> 100 µM									
COc1ccc(Br)c(CN2CCc3ccccc32)c1OS(=O)(=O)c1ccc(C)cc1	> 100 µM	> 100 µM	> 100 µM	> 100 µM	> 100 µM	> 100 µM	65.7 µM	> 100 µM	> 100 µM											
CCCCCCC(=O)C/C(CCC(=O)N(Cc1ccccc1)Cc1ccccc1)=N\NC(N)=O	> 100 µM	> 100 µM	> 100 µM	> 100 µM	> 100 µM	> 100 µM	> 100 µM	> 100 µM	> 100 µM											
CC(C)=Cc1cc(CCC/C(C)=C/Cc2c(O)cc(C)c(C(=O)O)c2O)co1	> 100 µM	> 100 µM	> 100 µM	> 100 µM		> 100 µM		> 100 µM	> 100 µM		> 100 µM									
CC(/C=C/C(=O)c1sc(C(N)=S)nc1C)=C\c1ccccc1	> 100 µM	> 100 µM	> 100 µM	> 100 µM	98 µM	> 100 µM	> 100 µM	> 100 µM	31.2 µM											
